Measured values taken from US7462600B2, “Macrolides” (Pfizer Inc, priority 2004, dated 2008).
Values after ≈ are worked out from the molar mass of the structure shown.

How the values were obtained:
Format in all cases: cell-based
[1] = system: Streptococcus pyogenes 1079; experiment: MIC, microtiter broth dilution (NCCLS M100-S14), S. pyogenes 1079 (ermB); conditions: Streptococcus pyogenes 1079
Procedure, shortened: (§1)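 Compounds were first dissolved in DMSO (40 mg/ml stock), then tested by broth dilution in microtiter trays. MICs were interpreted using the 14th Informational Supplement (M100-S14) criteria.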

[2] = system: Streptococcus pneumoniae 1016; experiment: MIC, microtiter broth dilution (NCCLS M100-S14), S. pneumoniae 1016 (susceptible); conditions: Streptococcus pneumoniae 1016
Procedure, shortened: as §1

[3] = system: Streptococcus pneumoniae 1095; conditions: Streptococcus pneumoniae 1095; microtiter broth dilution
Procedure, shortened: as §1

[4] = system: Streptococcus pneumoniae 1175; conditions: Streptococcus pneumoniae 1175; microtiter broth dilution
Procedure, shortened: as §1

[5] = system: Haemophilus influenzae 1218; experiment: MIC, microtiter broth dilution (NCCLS M100-S14), H. influenzae 1218 (susceptible); conditions: Haemophilus influenzae 1218
Procedure, shortened: as §1

Structure (SMILES)	MIC S. pyogenes 1079 [1] [µg/mL]	MIC S. pneumo. 1016 [2] [µg/mL]	MIC S. pneumo. 1095 [3] [µg/mL]	MIC S. pneumo. 1175 [4] [µg/mL]	MIC H. influenzae 1218 [5] [µg/mL]
CCC1OC(=O)C(C)C(=O)C(C)C(OC2OC(C)CC(N(C)C)C2O)C(C)(OC)CC(C)C(=O)C(C)C2N(C3CN(S(=O)(=O)c4ccc(F)c(-c5cnco5)c4)C3)C(=O)OC12C (centres unmarked) [Example 3.88, 3-descladinosyl-11,12-dideoxy-6-O-methyl-3-oxo-12,11-(oxycarbonyl-(1-(4-fluoro-3-(oxazol-5-yl)benzenesulfonyl)-azetidin-3-yl)-imino)-erythromycin A]	8 (≈ 8.96 µM)	<0.06	<0.06	<0.06	2 (≈ 2.24 µM)
CCC1OC(=O)C(C)C(=O)C(C)C(OC2OC(C)CC(N(C)C)C2O)C(C)(OC)CC(C)C(=O)C(C)C2N(C3CN(S(=O)(=O)c4ccc5sc(C)nc5c4)C3)C(=O)OC12C (centres unmarked) [Example 3.90, 3-descladinosyl-11,12-dideoxy-6-O-methyl-3-oxo-12,11-(oxycarbonyl-(1-(2-methylbenzo[d]thiazole-5-sulfonyl)-azetidin-3-yl)-imino)-erythromycin A]	8 (≈ 9.1 µM)	<0.06	<0.06	<0.06	0.25 (≈ 0.284 µM)
CCC1OC(=O)C(C)C(=O)C(C)C(OC2OC(C)CC(N(C)C)C2O)C(C)(OC)CC(C)C(=O)C(C)C2N(C3CN(S(=O)(=O)c4ccc5ccccc5c4)C3)C(=O)OC12C (centres unmarked) [Example 3.91, 3-descladinosyl-11,12-dideoxy-4-O-methyl-3-oxo-12,11-(oxycarbonyl-(1-(naphthalene-2-sulfonyl)-azetidin-3-yl)-imino)-erythromycin A]	4 (≈ 4.66 µM)	<0.06	<0.06	<0.06	0.12 (≈ 0.14 µM)
CCC1OC(=O)C(C)C(=O)C(C)C(OC2OC(C)CC(N(C)C)C2O)C(C)(OC)CC(C)C(=O)C(C)C2N(C3CN(S(=O)(=O)c4cccc5cnncc45)C3)C(=O)OC12C (centres unmarked) [Example 3.92, 3-descladinosyl-11,12-dideoxy-6-O-methyl-3-oxo-12,11-(oxycarbonyl-(1-(phthalazine-5-sulfonyl)-azetidin-3-yl)-imino)-erythromycin A]	4 (≈ 4.65 µM)	<0.06	<0.06	<0.06	1 (≈ 1.16 µM)
CCC1OC(=O)C(C)C(=O)C(C)C(OC2OC(C)CC(N(C)C)C2O)C(C)(OC)CC(C)C(=O)C(C)C2N(C3CN(S(=O)(=O)c4cccc5nccnc45)C3)C(=O)OC12C (centres unmarked) [Example 3.93, 3-descladinosyl-11,12-dideoxy-4-O-methyl-3-oxo-12,11-(oxycarbonyl-(1-(quinoxaline-5-sulfonyl)-azetidin-3-yl)-imino)-erythromycin A]	1 (≈ 1.16 µM)	<0.06	<0.06	<0.06	0.25 (≈ 0.291 µM)
CCC1OC(=O)C(C)C(=O)C(C)C(OC2OC(C)CC(N(C)C)C2O)C(C)(OC)CC(C)C(=O)C(C)C2N(C3CN(S(=O)(=O)c4ccc5c(cnn5C)c4)C3)C(=O)OC12C (centres unmarked) [Example 3.94, 3-descladinosyl-11,12-dideoxy-6-O-methyl-3-oxo-12,11-(oxycarbonyl-(1-(1-methyl-1H-indazole-5-sulfonyl)-azetidin-3-yl)-imino)erythromycin A]	0.25 (≈ 0.29 µM)	<0.06	0.12 (≈ 0.139 µM)	<0.06	0.25 (≈ 0.29 µM)
CCC1OC(=O)C(C)C(=O)C(C)C(OC2OC(C)CC(N(C)C)C2O)C(C)(OC)CC(C)C(=O)C(C)C2N(C3CN(S(=O)(=O)c4ccc5c(c4)CS(=O)(=O)C5)C3)C(=O)OC12C (centres unmarked) [Example 3.95]	0.12 (≈ 0.134 µM)	<0.06	<0.06	<0.06	0.5 (≈ 0.557 µM)
CCC1OC(=O)C(C)C(=O)C(C)C(OC2OC(C)CC(N(C)C)C2O)C(C)(OC)CC(C)C(=O)C(C)C2N(C3CN(S(=O)(=O)c4ccc5nn(C)cc5c4)C3)C(=O)OC12C (centres unmarked) [Example 3.96, 3-descladinosyl-11,12-dideoxy-6-O-methyl-3-oxo-12,11-(oxycarbonyl-(1-(2-methyl-2H-indazole-5-sulfonyl)-azetidin-3-yl)-imino)erythromycin A]	1 (≈ 1.16 µM)	<0.06	0.12 (≈ 0.139 µM)	2 (≈ 2.32 µM)	1 (≈ 1.16 µM)
CCC1OC(=O)C(C)(F)C(=O)C(C)C(OC2OC(C)CC(N(C)C)C2O)C(C)(OC)CC(C)C(=O)C(C)C2N(C3CN(S(=O)(=O)c4cccc5nccnc45)C3)C(=O)OC12C (centres unmarked) [Example 3.98, 3-descladinosyl-11,12-dideoxy-2-fluoro-6-O-methyl-3-oxo-12,11-(oxycarbonyl-(1-(quinoxaline-5-sulfonyl)-azetidin-3-yl)-imino)-erythromycin A]	0.25 (≈ 0.285 µM)	<0.063	<0.063	<0.063	0.25 (≈ 0.285 µM)
CCOc1ccc(S(=O)(=O)N2CC(N3C(=O)OC4(C)C(CC)OC(=O)C(C)C(=O)C(C)C(OC5OC(C)CC(N(C)C)C5O)C(C)(OC)CC(C)C(=O)C(C)C34)C2)cc1C#N (centres unmarked) [Example 3.99, 3-descladinosyl-11,12-dideoxy-6-O-methyl-3-oxo-12,11-(oxycarbonyl-(1-(3-cyano-4-ethoxybenzene-1-sulfonyl)-azetidin-3-yl)-imino)-erythromycin A]	0.25 (≈ 0.285 µM)	<0.063	<0.063	<0.063	1.41 (≈ 1.61 µM)
CCC1OC(=O)C(C)C(=O)C(C)C(OC2OC(C)CC(N(C)C)C2O)C(C)(OC)CC(C)C(=O)C(C)C2N(C3CN(S(=O)(=O)c4cccc5ncccc45)C3)C(=O)OC12C (centres unmarked) [Example 3.100, 3-descladinosyl-11,12-dideoxy-6-O-methyl-3-oxo-12,11-(oxycarbonyl-(1-(quinoline-5-sulfonyl)-azetidin-3-yl)-imino)-erythromycin A]	0.125 (≈ 0.146 µM)	<0.063	<0.063	<0.063	0.5 (≈ 0.582 µM)
CCC1OC(=O)C(C)C(=O)C(C)C(OC2OC(C)CC(N(C)C)C2O)C(C)(OC)CC(C)C(=O)C(C)C2N(C3CN(S(=O)(=O)c4ccc(OC)c5ncccc45)C3)C(=O)OC12C (centres unmarked) [Example 3.101, 3-descladinosyl-11,12-dideoxy-6-O-methyl-3-oxo-12,11-(oxycarbonyl-(1-(8-methoxyquinoline-5-sulfonyl)-azetidin-3-yl)-imino)-erythromycin A]	<0.063	<0.063	<0.063	<0.063	0.125 (≈ 0.141 µM)
CCOc1ccc(S(=O)(=O)N2CC(N3C(=O)OC4(C)C(CC)OC(=O)C(C)C(=O)C(C)C(OC5OC(C)CC(N(C)C)C5O)C(C)(OC)CC(C)C(=O)C(C)C34)C2)c2cccnc12 (centres unmarked) [Example 3.102, 3-descladinosyl-11,12-dideoxy-6-O-methyl-3-oxo-12,11-(oxycarbonyl-(1-(8-ethoxyquinoline-5-sulfonyl)-azetidin-3-yl)-imino)erythromycin A]	<0.063	<0.063	<0.063	<0.063	1 (≈ 1.11 µM)
CCOc1ccc(S(=O)(=O)N2CC(N3C(=O)OC4(C)C(CC)OC(=O)C(C)(F)C(=O)C(C)C(OC5OC(C)CC(N(C)C)C5O)C(C)(OC)CC(C)C(=O)C(C)C34)C2)cc1C#N (centres unmarked) [Example 3.103, 3-descladinosyl-11,12-dideoxy-2-fluoro-6-O-methyl-3-oxo-12,11-(oxycarbonyl-(1-(3-cyano-4-ethoxybenzene-1-sulfonyl)-azetidin-3-yl)-imino)-erythromycin A]	0.5 (≈ 0.559 µM)	<0.063	<0.063	<0.063	2 (≈ 2.23 µM)
CCC1OC(=O)C(C)C(=O)C(C)C(OC2OC(C)CC(N(C)C)C2O)C(C)(OC)CC(C)C(=O)C(C)C2N(C3CN(S(=O)(=O)c4ccc5cnsc5c4)C3)C(=O)OC12C (centres unmarked) [Example 3.104, 3-descladinosyl-11,12-dideoxy-6-O-methyl-3-oxo-12,11-(oxycarbonyl-(1-(benzo[d]isothiazole-6-sulfonyl)-azetidin-3-yl)-imino)-erythromycin A]	1 (≈ 1.16 µM)	<0.063	<0.063	<0.063	<0.063
CCOc1ccc(S(=O)(=O)N2CC(N3C(=O)OC4(C)C(CC)OC(=O)C(C)C(=O)C(C)C(OC5OC(C)CC(N(C)C)C5O)C(C)(OC)CC(C)C(=O)C(C)C34)C2)cc1OC (centres unmarked) [Example 3.105, 3-descladinosyl-11,12-dideoxy-6-O-methyl-3-oxo-12,11-(oxycarbonyl-(1-(4-ethoxy-3-methoxybenzene-1-sulfonyl)-azetidin-3-yl)-imino)-erythromycin A]	1 (≈ 1.13 µM)	<0.063	<0.063	<0.063	0.25 (≈ 0.283 µM)
